Data reported in patent US20070161704A1, “Pharmaceutical composition useful for treating chronic myeloid leukemia” (COUNCIL OF SCIENTIFIC AND INDUSTRIAL RESEARCH, priority 2002, published 2007).
Entries after “also recorded” stand apart in the source; their conditions may differ.

Experiments:
[1] = test system: Bcr-Abl positive CML cell line (K562); experiment: Cell count assay, viable cells by trypan blue exclusion; type: cell-based, human
Experimental: Cell count assays were performed by plating cells in the presence of regular growth medium with or without indicated amount of extract, FIG. 2(a), fraction, FIG. 2(b), purified compound, FIG. 2(e), and its sodium salt, FIG. 2 (d). Each day, viable cells were counted as assessed by exclusion of try pan blue, FIG. 2(e).

[2] = test system: normal human peripheral blood mononuclear cells (HPBMC); experiment: Cytokine production by HPBMC (ELISA); type: cell-based; conditions: for Concentration of Cytokines: IFN-γ / Concentration of Cytokines: IL-2 / Concentration of Cytokines: IL-6: HPBMC, 18 hrs
Excerpt: Supernatants were collected and quantitated for IL-2, IFN-γ, IL-6 by commercial ELISA.

Abl protein = experiment: Abl expression status by flow cytometry and immunoblot; type: cell-based, human; conditions: anti-c-Abl antibody, FIG. 4b, 4c
Excerpt: (§1) FIG. 4(b) Immuno-blot-based determination of Abl phosphorylation status. Cells were harvested, lysed, equivalent amount Iysates were separated by SDS-P AGE and electrotransferred. The filters were probed with anti-phospho-c-Abl (Tyr 245) (upper panels) or anti-c-Abl antibody (middle panels).
FIG. 4(c) Flow cytometric determination of Abl expression status. Cells were permeabilized and stained with rabbit anti-c-Abl antibody. Dotted line, staining with normal rabbit IgG; solid line, staining with immune IgG.
(§2) Immunoblot assay. Cells were harvested, lysed, equivalent amount of lysates were separated by SDS-PAGE and electro-transferred. The filters were probed with anti-caspase-3 antibody (B.D. Pharmingen), anti-c-Abl antibody or anti-phospho-c-Abl antibody (Cell Signaling Technology).
(§3) Flow cytometric determination of Abl phosphorylation or Abl expression status. Cells were permeabelysed, stained with rabbit anti-phospho-c-Abl antibody, anti-c-Abl antibody or control rabbit antibody and analysed in a flow cytometer.

Molt-4 cells [3] = experiment: Apoptosis by flow cytometry (annexin V-FITC/PI); type: cell-based; conditions: 67.5 nmole/10^5 cells, 6 h, FIG. 3a
Experimental: (§4) FIG. 3(a). Cells were left untreated (NT) or incubated with NaChl (67.5 nmole/10^5 cells) for 6 h and processed for flow cytometry after staining with annexin V-FITC and PI. Viable cells are in the lower left quadrant. Apoptotic cells stained by annexin V are in the lower right quadrant. Late stage apoptotic cells stained by both annexin V and PI are in the upper right quadrant.
(§5) Measurement of apoptosis by flow cytometry. Cells were left untreated or treated with NaChl (67.5 nmole/10^5 cells) for 6 h. After washing, cells were stained with fluorescein isothyocyanate (FITC) conjugated Annexin V and propidium iodide (PI) and analysed in a flow cytometer (FACS Calibur, Beckton Dickinson, USA).

[4] = target: T1, Bcr-Abl protein tyrosine kinase (Homo sapiens, UniProt P00519); experiment: Abl phosphorylation status by flow cytometry and immunoblot; type: cell-based; conditions: 3 h, anti-phospho-c-Abl (Tyr245), FIG. 4a, 4b
T1 construct: triggering apoptosis of Bcr-Abl expressing CML cell line K562; BCR N-terminal portion (natural fusion partner, P11274); endogenous in cells; host or cells: Ph+ cells: K562 and PBMC of Bcr-Abl positive CML patients; the other entry of the earlier key: BCR (P11274, Breakpoint cluster region protein)
T1 sequence (P00519 28-1130 limits assumed): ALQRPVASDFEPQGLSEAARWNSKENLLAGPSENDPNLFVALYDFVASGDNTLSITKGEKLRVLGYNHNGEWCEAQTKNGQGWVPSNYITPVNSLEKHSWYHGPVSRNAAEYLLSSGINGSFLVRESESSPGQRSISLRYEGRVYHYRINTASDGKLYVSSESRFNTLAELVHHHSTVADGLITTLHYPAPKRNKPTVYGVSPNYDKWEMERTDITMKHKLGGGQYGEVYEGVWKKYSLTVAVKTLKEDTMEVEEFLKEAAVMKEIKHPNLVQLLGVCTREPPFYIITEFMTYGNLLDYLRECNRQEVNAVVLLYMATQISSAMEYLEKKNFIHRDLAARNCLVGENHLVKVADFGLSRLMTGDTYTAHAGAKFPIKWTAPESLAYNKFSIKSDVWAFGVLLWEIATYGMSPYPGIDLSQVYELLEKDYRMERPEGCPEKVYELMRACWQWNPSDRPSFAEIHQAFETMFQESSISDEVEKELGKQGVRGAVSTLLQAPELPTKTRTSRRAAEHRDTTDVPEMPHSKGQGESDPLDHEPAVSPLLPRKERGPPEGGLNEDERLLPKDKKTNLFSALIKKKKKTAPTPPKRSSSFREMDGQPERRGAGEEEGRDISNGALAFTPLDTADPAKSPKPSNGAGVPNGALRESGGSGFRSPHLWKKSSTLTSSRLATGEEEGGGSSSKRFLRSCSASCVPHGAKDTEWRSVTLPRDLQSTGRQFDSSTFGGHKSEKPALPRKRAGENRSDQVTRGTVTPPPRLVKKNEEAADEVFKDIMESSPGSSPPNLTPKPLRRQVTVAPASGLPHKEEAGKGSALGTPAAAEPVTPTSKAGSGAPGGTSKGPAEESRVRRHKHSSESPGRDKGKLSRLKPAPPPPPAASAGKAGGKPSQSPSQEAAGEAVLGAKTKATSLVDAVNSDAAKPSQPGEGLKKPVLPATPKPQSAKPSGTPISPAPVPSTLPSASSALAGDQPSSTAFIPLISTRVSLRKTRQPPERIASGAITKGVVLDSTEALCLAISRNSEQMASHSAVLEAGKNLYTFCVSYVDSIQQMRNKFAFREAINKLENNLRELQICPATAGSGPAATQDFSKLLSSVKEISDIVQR
Experimental: FIG. 4(a) Flow cytometric determination of Abl phosphorylation status. Cells were left untreated (NT) or incubated with NaChl (T) for 3 h, permeabilized and stained with rabbit anti-phospho-c-Abl (Tyr245) antibody. Dotted line, staining with normal rabbit IgG; solid line, staining with immune IgG.
as §1, §2, §3

Molt-4 cells [5] = experiment: Immunoblot detection of caspase 3 activation; type: cell-based; conditions: 24 h, FIG. 3d
Experimental: (§6) FIG. 3(d). Treatment with NaChl leads to activation of procaspase-3 in Ph+ cells. Cells were left untreated or treated with NaChl (T) for 24 h. Cells were harvested, lysed, equivalent amount of lysates were separated by SDS-PAGE and electrotransferred. The filters were probed with anti-caspase-3 that recognize both procaspase3 (32 Kda, upper band) and caspase-3 cleavage product (17 Kda, lower band).
as §2

K562 cells [6] = experiment: DNA cell cycle analysis (PI staining); type: cell-based, human; conditions: 1 or 2 days culture, FIG. 3b
Experimental: (§7) FIG. 3(b). Treatment with NaChl results in early cell cycle arrest followed by apoptosis in Ph^+ cells. Cells were cultured in the presence or absence of NaChl. After 1 or 2 days in culture, cells were collected, permeabilized, and stained with PI for DNA content analysis. Gates were set to assess the percentages of dead (<2n DNA, M1). G0/G1 (2n DNA, M2), and S+G2+M (>2n DNA, M3) cells.
(§8) DNA cell cycle analysis. Cells were cultured with NaChl as described in example 5. After 1 or 2 days culture, cells were collected, permeabilized and stained with PI for DNA cell cycle analysis.

[7] = test system: PBMC of Bcr-Abl positive CML patients; experiment: DNA cell cycle analysis (PI staining); type: cell-based, human; conditions: 1 or 2 days culture, FIG. 3b
Experimental: as §7, §8

[8] = test system: Bcr-Abl negative CML patients PBMC; experiment: Viability of CML patients' PBMC; type: cell-based, human; conditions: 67.5 nmole/10^5 cells, FIG. 2e; listed as NaChl
Experimental: (§9) FIG. 2. […] The flow diagram of purification is shown. […] Cell count assays were performed by plating cells in the presence of regular growth medium with or without indicated amount of extract, FIG. 2(a), fraction, FIG. 2(b), purified compound, FIG. […], and its sodium salt, FIG. 2 (d). Each day, viable cells were counted as assessed by exclusion of try pan blue, FIG. […]. Viability of PBMC obtained from three Ph^+ CML patients and one Ph^− CML patient after treatment with Na-Chl (67.5 nmole/10^5 cells), FIG. 2(f), Morphological changes of K562 cells after treatment with NaChl (67.5 nmole/10^5 cells) for 6 h (phase contrast micrographs, ×400).
(§10) Culture of Bcr-Abl positive CML cell line (K562), peripheral blood cells of CML patients, Bcr-Abl-negative ALL cell line (Molt-4) and peripheral blood cells of CML patients. Cell count assays were performed by plating cells in the presence of regular growth medium with or without indicated amount of extract, fraction, purified compound and its sodium salt. Each day, viable cells were counted as assessed by exclusion of trypan blue.

[9] = test system: Philadelphia chromosome (Bcr-Abl) positive CML patients PBMC; experiment: Viability of CML patients' PBMC; type: cell-based, human; conditions: 67.5 nmole/10^5 cells, FIG. 2e; listed as NaChl
Experimental: as §9, §10

Molt-4 cells [10] = experiment: Confocal microscopy, Annexin V staining; type: cell-based; conditions: Molt-4, FIG. 3c
Experimental: (§11) FIG. 3(e). Fluorescence images of K562 and Molt-4 cells after treatment with NaChl followed by staining with annexin V-Allexa™ staining with annex in V are shown in left panels and bright filed phase contrast views are shown in right panels.
(§12) Confocal microscopy. K562 and Molt-4 cells were treated with NaChl followed by staining with Annexin-V -Allexa™ as described in example 5, and allowed to adhere onto poly-L-lysine-coated coverslips for 10 min. Representative fields of cells were analysed with a Leica TCS SP2 confocal laser scanning microscope (Heidelberg, Germany).

[11] = test system: STI571-resistant K562 cells (K562-R); experiment: Proliferation by [3H]thymidine uptake; type: cell-based, human; conditions: 48 h, graded concentrations, FIG. 6
Experimental: (§13) FIG. 6. […] K562 and K562-R cells were incubated with graded concentrations of ST1571 (A) or NaChl (B) for 48 h, proliferation was then determined by [^3H] thymidine uptake.
K562 cells were incubated with increasing concentrations of STI571 (received as gift in the form of Gleevec from a CML patient receiving Gleevec therapy), and surviving cells were collected by centrifugation and treated with 2-fold higher concentrations of STI571 (Donato, N. J. et al. Blood, 101:690-698, 2003).
(§14) K562 and STI571-resistant K562 cells (K562-R) were incubated with graded concentrations of ST1571 or NaChl for 48 hours, proliferation was then determined by [^3H]thymidine uptake.

[12] = test system: STI571-sensitive K562 cells; experiment: Proliferation by [3H]thymidine uptake; type: cell-based, human; conditions: 48 h, graded concentrations, FIG. 6
Experimental: as §13, §14

K562 cells [13] = experiment: Confocal microscopy, Annexin V staining; type: cell-based, human; conditions: K562, FIG. 3c
Experimental: as §11, §12

K562 cells [14] = experiment: Apoptosis by flow cytometry (annexin V-FITC/PI); type: cell-based, human; conditions: 67.5 nmole/10^5 cells, 6 h, FIG. 3a
Experimental: as §4, §5

[15] = test system: PBMC of Bcr-Abl positive CML patients; experiment: Apoptosis by flow cytometry (annexin V-FITC/PI); type: cell-based, human; conditions: 67.5 nmole/10^5 cells, 6 h, FIG. 3a
Experimental: as §4, §5

[16] = test system: PBMC of Bcr-Abl negative CML patients; experiment: Apoptosis by flow cytometry (annexin V-FITC/PI); type: cell-based, human; conditions: 67.5 nmole/10^5 cells, 6 h, FIG. 3a
Experimental: as §4, §5

normal PBMC = experiment: Apoptosis by flow cytometry (annexin V-FITC/PI); type: cell-based, human; conditions: 67.5 nmole/10^5 cells, 6 h, FIG. 3a
Experimental: as §4, §5

K562 xenografts = experiment: In vivo studies on K562 xenografts in nude mice; parameters: species or system mouse; conditions: 25-150 mg/kg intraperitoneally once a day for 10 days, FIG. 5
Experimental: FIG. 5. K562 cells embedded in Matrigel were staged in nude mice until tumors reached 200-300 mm^3. PBS (●), NaChl (25 mg/kg, □; 100 mg/kg, A; 150 mg/kg, ∘) were administered intraperitoneally once a day for ten days.
In vivo studies on K562 xenografts: K562 cells were suspended to 5×10^7 cells/ml in matrigel (BD Biosciences, Mountain View, Calif.; 1 volume of cells with 1 volume of cold Matrigel). Nude female mice 6 to 7 weeks of age were given injections of 0.2 ml of this suspension. Animals were left untreated until K562 xenografts reached 200-300 mm^3. […] Phosphate buffered saline (PBS, 0.2 ml per mouse) was used as a control. Animal studies were conducted under an approved institutional Animal Care and Use Committee protocol.

K562 cells [17] = experiment: Morphology analysis by phase contrast microscopy; type: cell-based, human; conditions: 67.5 nmole/10^5 cells, 6 h, FIG. 2f
Experimental: as §9
Morphology analysis of Bcr-Abl positive CML cell line K562 by phase contrast microscopy. Cells were left untreated (NT) or treated with NaChl (Nachl; 67.5 nmole/10^5 cells) and viewed under phase contrast microscope (magnification ×400).

PBMC of normal donors = experiment: Immunoblot detection of caspase 3 activation; type: cell-based, human; conditions: 24 h, FIG. 3d
Experimental: as §6, §2

[18] = test system: PBMC of Bcr-Abl (Ph) positive CML patients; experiment: Immunoblot detection of caspase 3 activation; type: cell-based, human; conditions: 24 h, FIG. 3d
Experimental: as §6, §2

K562 cells [19] = experiment: Immunoblot detection of caspase 3 activation; type: cell-based, human; conditions: 24 h, FIG. 3d
Experimental: as §6, §2

[20] = test system: PBMC of Bcr-Abl negative CML patients; experiment: Immunoblot detection of caspase 3 activation; type: cell-based, human; conditions: 24 h, FIG. 3d
Experimental: as §6, §2

[21] = PHA 2.5 μg/ml + LPS 1.0 μg/ml + Chl 25 μg/ml

For `O=C(/C=C/c1ccc(O)c(O)c1)O[C@@H]1C[C@](O)(C(=O)O)C[C@@H](O)[C@H]1O` [chlorogenic acid], the IC50 ([1]; Homo sapiens, in vitro, K562 cells, FIGS. 2C & 2D) was 27 µM, the “killing of K562 cells” value ([1]; cell count, FIG. 2a-2c) was “higher killing activity of K562 cells compare to crude extract or fraction E” and the “Concentration of Cytokines: IFN-γ” value ([2]; Chl 25 μg/ml alone) was 19.4 pg/mL. For the same molecule, the “Concentration of Cytokines: IL-2” value ([2]; Chl 25 μg/ml alone) was 6.8 pg/mL, the “Concentration of Cytokines: IL-6” value ([2]; Chl 25 μg/ml alone) was 781.9 pg/mL and the “Concentration of Cytokines: IFN-γ” value [2, 21] was 13.8 pg/mL. The “Concentration of Cytokines: IL-2” value [2, 21] was 2.5 pg/mL, the “Concentration of Cytokines: IL-6” value [2, 21] was 1899.0 pg/mL and the “production of IL-2, IFN-γ, and IL-6 by HPBMC after stimulation with PHA and LPS” value ([2]; PHA and LPS stimulation) was “significantly inhibited”. The “spontaneous production of IL-2, IFN-γ, and IL-6 by HPBMC” value ([2]; no stimulation) was “inhibits”.
For `O=C(/C=C/c1ccc(O)c(O)c1)O[C@@H]1C[C@](O)(C(=O)[O-])C[C@@H](O)[C@H]1O.[Na+]` [sodium chlorogenate], the “expression of Abl protein level” value (Abl protein) was “without affecting the expression”, the apoptosis (Molt-4 cells [3]) was “did not induce apoptosis” and the “phosphorylation of Bcr-Abl protein tyrosine kinase” value [4] was “inhibits phosphorilation”. For the same molecule, the “apoptosis by caspase 3 activation” value (Molt-4 cells [5]) was “not in Molt-4 cells”, the DNA cell cycle (K562 cells [6]) was “induces cell cycle arrest followed by breakdown of DNA” and the DNA cell cycle [7] was “induces cell cycle arrest followed by breakdown of DNA”. For the same molecule, the “effect on Bcr-Abl negative CML patients PBMC” value [8] was “no effect; also recorded: without any effects”, the “killing of Bcr-Abl positive CML patients PBMC” value [9] was “active in killing; also recorded: destroys” and the “production of interferon gamma” value ([2]; statement referring to Table II) was “significantly inhibits”. The “Annexin V staining (confocal)” value (Molt-4 cells [10]) was “not in Molt-4 cells”, the “apoptosis/proliferation of STI571-resistant K562 cells” value [11] was “induces apoptosis” and the “apoptosis/proliferation of STI571-sensitive K562 cells” value [12] was “induces apoptosis”. For the same molecule, the “Annexin V staining (confocal)” value (K562 cells [13]) was “positive Annexin V staining”, the apoptosis (K562 cells [14]) was “increase in apoptosis” and the apoptosis [15] was “increase in apoptosis”. The apoptosis [16] was “did not induce apoptosis”, the apoptosis (normal PBMC) was “remain virtually unaffected” and the apoptosis (normal PBMC; listed as NaChl) was “did not induce apoptosis”. The “tumor growth of K562 xenografts” value (K562 xenografts) was “reduced the tumor growth in a dose dependent manner”, the “morphological changes in K562 cells” value (K562 cells [17]) was “induces morphological changes (nuclear condensation)” and the “apoptosis by caspase 3 activation” value (PBMC of normal donors) was “not”. For the same molecule, the “apoptosis by caspase 3 activation” value [18] was “Apoptosis”, the “apoptosis by caspase 3 activation” value (K562 cells [19]) was “Apoptosis in K562 cells” and the “apoptosis by caspase 3 activation” value [20] was “not”.
